Data as given in patent US9186360B2, “Treatment of respiratory disorders using TRPA1 antagonists” (GLENMARK PHARMACEUTICALS S.A., priority 2011, dated 2015).
pIC50: −log10 of the molar value.

Experiments:
Type in all cases: cell-based
[1] = biological target: human TRPA1 (Homo sapiens (Human), UniProt O75762); experiment: 45Calcium uptake assay, AITC induced, human TRPA1 expressing CHO cells; details: AITC 30 micromolar, read-out: IC50 values hTRPA1
Protocol: As contemplated herein, the IC50 value is measured by the following method. The inhibition of TRPA1 receptor activation is measured as inhibition of allylisothiocyanate (AITC) induced cellular uptake of radioactive calcium. Test solution of test compound is prepared in a suitable solvent using appropriate method. Human TRPA1 expressing CHO cells are grown in suitable medium. Cells are treated with test compounds followed by addition of AITC. Cells are washed and lysed. Radioactivity in the lysate is measured in Packard Top count after addition of liquid scintillant. The concentration response curves for compounds are plotted as a % of maximal response obtained in the absence of test antagonist, and the IC50 values are calculated from such concentration response curve by nonlinear regression analysis using GraphPad PRISM software.
The illustrative TRPA1 antagonists of the present invention were screened for TRPA1 activity according to a modified procedure described in Tóth, A. et al., Life Sciences 2003, 73, 487-498. The screening of the compounds can be carried out by other methods and procedures known to persons skilled in the art.
Screening for TRPA1 Antagonist Using the 45Calcium Uptake Assay:
The inhibition of TRPA1 receptor activation was measured as inhibition of allylisothiocyanate (AITC) induced cellular uptake of radioactive calcium. Test compounds were dissolved in DMSO to prepare 10 mM stock solution and then diluted using plain medium with 0.1% BSA and 1.8 mM CaCl2 to get desired concentration. Final concentration of DMSO in the reaction was 0.5% (v/v). Human TRPA1 expressing CHO cells were grown in F-12 DMEM medium with 10% FBS, 1% penicillin-streptomycin solution, and 400 μg/ml of G-418. Cells were seeded 24 h prior to the assay in 96 well plates so as to get ˜50,000 cells per well on the day of experiment. Cells were treated with test compounds for 10 min followed by addition of AITC at a final concentration of 30 micromolar and 5 μCi/ml 45Ca+2 for 3 min at 25° C. Cells were washed and lysed using buffer containing 1% Triton X-100, 0.1% deoxycholate and 0.1% SDS. Radioactivity in the lysate was measured in Packard Top count after addition of liquid scintillant.
Concentration response curves were plotted as a % of maximal response obtained in the absence of test antagonist. IC50 value was calculated from concentration response curve by nonlinear regression analysis using GraphPad PRISM software.

[2] = biological target: human TRPV1 (Homo sapiens (Human), UniProt Q8NER1); experiment: Radiometric calcium selectivity assay, CHO cells expressing human TRPV1 (capsaicin); details: read-out: IC50 values hTRPV1
Protocol: (§1) For selectivity screening, CHO cells stably expressing human TRPV1, human TRPV3, human TRPV4, or human TRPM8 were generated in-house and maintained in DMEM F-12 supplemented with 10% FBS and G418. All the cell types were cultured at 37° C. in humidified air containing 5% CO2. Radiometric calcium assay was performed as described above with some minor modifications. Assay was carried out in total volume of 200 μl at 30° C. (for TRPV1), 32° C. (for TRPV3) and 25° C. (for TRPV4 and TRPM8). Agonists used for selectivity screening of the different TRPs are: Capsaicin for TRPV1,2-aminoethoxydiphenyl borate for TRPV3, 4α-phorbol 12,13-didecanoate for TRPV4 and Icilin for TRPM8. After 2-5 minutes of agonist treatment, drug was washed and lysed in lysis buffer as mentioned above. Radioactivity in the lysate was measured in Packard Top count after addition of liquid scintillant.

[3] = biological target: human TRPV3 (Homo sapiens (Human), UniProt Q8NET8); experiment: Radiometric calcium selectivity assay, CHO cells expressing human TRPV3 (2-aminoethoxydiphenyl borate); details: read-out: IC50 values hTRPV3
Protocol: as §1

[4] = biological target: human TRPV4 (Homo sapiens (Human), UniProt Q9HBA0); experiment: Radiometric calcium selectivity assay, CHO cells expressing human TRPV4 (4α-phorbol 12,13-didecanoate); details: read-out: IC50 values hTRPV4
Protocol: as §1

[5] = biological target: human TRPM8 (Homo sapiens (Human), UniProt Q7Z2W7); experiment: Radiometric calcium selectivity assay, CHO cells expressing human TRPM8 (icilin); details: read-out: IC50 values hTRPM8
Protocol: as §1

human TRPV4, sequence (Q9HBA0 whole entry): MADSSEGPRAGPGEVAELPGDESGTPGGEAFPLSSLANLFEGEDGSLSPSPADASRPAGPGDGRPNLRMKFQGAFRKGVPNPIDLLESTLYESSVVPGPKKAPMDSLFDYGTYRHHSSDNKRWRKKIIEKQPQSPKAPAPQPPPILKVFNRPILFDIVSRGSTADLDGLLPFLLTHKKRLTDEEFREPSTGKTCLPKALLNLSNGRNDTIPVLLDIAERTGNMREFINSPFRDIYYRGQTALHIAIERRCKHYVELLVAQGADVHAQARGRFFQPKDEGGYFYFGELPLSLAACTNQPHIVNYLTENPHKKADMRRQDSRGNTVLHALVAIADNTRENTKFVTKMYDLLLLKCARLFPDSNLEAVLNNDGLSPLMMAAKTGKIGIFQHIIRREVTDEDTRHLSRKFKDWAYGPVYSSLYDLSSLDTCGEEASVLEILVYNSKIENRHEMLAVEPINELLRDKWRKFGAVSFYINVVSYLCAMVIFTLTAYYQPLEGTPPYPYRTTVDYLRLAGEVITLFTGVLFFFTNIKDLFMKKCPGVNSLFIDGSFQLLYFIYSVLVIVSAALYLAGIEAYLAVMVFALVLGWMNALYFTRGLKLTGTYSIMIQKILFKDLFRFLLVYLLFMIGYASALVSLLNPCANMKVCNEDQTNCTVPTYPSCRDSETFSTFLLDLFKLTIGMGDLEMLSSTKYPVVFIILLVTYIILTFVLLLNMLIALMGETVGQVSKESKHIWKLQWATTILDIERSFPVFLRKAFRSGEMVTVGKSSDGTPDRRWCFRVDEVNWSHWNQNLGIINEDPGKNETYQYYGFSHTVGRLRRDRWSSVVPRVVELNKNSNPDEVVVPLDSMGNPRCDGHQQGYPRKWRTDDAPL
human TRPV1, sequence (Q8NER1 whole entry): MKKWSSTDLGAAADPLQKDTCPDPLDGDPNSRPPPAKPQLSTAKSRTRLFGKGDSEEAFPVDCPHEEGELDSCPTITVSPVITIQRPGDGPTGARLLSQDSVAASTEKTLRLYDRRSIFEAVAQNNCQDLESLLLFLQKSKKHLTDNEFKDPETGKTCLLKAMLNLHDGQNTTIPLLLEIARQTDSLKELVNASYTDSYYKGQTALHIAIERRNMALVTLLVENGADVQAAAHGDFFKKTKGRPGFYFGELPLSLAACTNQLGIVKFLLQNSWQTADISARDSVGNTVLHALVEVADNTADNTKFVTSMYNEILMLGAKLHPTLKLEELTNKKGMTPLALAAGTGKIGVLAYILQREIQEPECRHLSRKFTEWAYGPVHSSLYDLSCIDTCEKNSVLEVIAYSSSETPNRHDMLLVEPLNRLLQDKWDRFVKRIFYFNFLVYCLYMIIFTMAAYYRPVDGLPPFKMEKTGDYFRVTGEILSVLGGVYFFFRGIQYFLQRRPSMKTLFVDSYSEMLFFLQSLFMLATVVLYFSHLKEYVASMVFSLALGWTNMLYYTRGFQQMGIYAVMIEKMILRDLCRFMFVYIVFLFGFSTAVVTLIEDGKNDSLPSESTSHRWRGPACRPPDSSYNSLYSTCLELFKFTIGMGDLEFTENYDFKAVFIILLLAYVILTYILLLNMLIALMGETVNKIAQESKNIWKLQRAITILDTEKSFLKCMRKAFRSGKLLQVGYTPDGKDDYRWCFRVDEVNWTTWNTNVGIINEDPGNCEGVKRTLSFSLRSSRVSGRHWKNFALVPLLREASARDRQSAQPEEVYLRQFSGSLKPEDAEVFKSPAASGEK
human TRPM8, sequence (Q7Z2W7 whole entry): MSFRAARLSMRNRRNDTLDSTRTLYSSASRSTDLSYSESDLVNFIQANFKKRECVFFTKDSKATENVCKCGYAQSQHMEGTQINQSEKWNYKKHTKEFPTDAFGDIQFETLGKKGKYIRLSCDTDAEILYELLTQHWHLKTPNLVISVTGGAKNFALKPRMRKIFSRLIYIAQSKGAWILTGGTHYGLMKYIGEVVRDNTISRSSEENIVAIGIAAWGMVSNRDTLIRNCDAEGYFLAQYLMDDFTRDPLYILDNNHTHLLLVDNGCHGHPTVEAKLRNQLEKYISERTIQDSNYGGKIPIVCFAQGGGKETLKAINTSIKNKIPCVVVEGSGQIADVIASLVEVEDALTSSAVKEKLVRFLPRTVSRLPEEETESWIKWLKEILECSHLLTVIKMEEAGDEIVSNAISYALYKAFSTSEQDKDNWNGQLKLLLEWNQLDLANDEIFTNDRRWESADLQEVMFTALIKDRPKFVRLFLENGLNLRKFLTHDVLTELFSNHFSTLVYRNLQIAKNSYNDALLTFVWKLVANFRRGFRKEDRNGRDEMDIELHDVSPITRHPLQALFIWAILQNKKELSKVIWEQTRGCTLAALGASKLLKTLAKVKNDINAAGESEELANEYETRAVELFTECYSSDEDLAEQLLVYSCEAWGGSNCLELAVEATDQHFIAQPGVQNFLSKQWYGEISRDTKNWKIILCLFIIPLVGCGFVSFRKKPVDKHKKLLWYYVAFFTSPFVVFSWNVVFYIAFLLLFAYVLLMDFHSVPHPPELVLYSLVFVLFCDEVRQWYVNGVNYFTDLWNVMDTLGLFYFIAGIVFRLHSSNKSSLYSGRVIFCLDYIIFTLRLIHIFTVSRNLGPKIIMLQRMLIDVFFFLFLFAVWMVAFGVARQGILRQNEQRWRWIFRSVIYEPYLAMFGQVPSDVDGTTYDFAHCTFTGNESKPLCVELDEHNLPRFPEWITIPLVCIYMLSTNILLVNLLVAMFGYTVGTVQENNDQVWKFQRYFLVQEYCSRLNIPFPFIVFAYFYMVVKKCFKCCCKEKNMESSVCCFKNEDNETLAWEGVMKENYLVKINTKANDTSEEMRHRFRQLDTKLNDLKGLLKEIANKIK
human TRPA1, sequence (O75762 whole entry): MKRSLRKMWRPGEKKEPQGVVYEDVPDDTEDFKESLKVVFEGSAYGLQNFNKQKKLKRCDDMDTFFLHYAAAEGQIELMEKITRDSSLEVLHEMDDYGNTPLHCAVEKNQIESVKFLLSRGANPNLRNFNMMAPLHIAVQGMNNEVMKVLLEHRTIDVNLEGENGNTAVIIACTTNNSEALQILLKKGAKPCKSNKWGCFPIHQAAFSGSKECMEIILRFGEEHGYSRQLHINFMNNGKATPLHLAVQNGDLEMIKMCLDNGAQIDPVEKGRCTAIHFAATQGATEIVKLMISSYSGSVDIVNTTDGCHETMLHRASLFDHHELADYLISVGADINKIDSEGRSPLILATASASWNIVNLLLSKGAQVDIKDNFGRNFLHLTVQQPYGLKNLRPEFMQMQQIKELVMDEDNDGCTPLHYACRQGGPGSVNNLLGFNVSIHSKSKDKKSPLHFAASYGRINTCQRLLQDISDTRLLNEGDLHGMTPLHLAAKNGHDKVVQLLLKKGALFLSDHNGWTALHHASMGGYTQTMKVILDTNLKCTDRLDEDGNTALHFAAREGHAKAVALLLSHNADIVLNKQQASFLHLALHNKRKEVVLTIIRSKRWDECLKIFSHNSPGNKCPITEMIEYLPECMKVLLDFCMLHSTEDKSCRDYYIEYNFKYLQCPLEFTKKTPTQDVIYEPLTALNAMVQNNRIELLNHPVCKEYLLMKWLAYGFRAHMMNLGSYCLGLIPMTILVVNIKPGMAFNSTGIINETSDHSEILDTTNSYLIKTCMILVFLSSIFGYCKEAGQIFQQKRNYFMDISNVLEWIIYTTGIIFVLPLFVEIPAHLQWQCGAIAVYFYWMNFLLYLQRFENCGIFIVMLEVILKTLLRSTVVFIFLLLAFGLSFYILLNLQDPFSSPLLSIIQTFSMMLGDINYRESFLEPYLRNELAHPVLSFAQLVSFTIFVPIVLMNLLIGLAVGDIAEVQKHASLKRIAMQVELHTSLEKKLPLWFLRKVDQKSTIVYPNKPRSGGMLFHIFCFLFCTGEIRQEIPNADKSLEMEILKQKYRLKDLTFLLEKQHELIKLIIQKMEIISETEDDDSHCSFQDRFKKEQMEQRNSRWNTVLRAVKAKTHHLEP
human TRPV3, sequence (Q8NET8 whole entry): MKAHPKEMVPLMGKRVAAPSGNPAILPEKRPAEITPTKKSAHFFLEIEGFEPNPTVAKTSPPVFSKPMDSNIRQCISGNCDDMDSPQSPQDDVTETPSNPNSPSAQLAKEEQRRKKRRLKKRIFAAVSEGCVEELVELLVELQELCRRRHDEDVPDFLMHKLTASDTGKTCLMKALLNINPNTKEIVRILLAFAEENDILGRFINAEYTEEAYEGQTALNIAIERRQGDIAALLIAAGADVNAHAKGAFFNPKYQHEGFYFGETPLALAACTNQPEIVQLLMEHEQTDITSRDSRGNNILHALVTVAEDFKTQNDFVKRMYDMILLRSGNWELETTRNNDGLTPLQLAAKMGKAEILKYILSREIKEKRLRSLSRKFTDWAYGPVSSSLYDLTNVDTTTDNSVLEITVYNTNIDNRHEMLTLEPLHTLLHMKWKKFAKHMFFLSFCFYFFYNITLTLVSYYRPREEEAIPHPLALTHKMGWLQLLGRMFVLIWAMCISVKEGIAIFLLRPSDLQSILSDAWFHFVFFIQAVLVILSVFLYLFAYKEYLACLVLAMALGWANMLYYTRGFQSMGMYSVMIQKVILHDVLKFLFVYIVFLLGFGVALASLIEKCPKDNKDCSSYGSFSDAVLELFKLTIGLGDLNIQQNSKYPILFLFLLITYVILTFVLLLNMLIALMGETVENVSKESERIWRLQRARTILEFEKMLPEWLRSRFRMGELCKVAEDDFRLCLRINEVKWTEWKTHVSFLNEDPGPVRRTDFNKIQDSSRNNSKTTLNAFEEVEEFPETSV

Row | Compound | pIC50 [1] | pIC50 [2] | pIC50 [3] | pIC50 [4] | pIC50 [5]
1 | CCc1sc2c(c1CC(=O)Nc1nc(-c3ccc(C(F)(F)F)c(F)c3)cs1)c(=O)n(C)c(=O)n2C [Compound 50] | 7.78 | < 5.00 | < 6.00 | 5.05 | < 5.00
2 | Cn1c(=O)c2c(CC(=O)Nc3nc(-c4cc(F)c(OCC(F)(F)F)c(F)c4)cs3)ccnc2n(C)c1=O [Compound 86] | 8.16 | < 5.00 | < 5.00 | < 6.00 | < 5.00
3 | Cn1c(=O)c2c(CC(=O)Nc3nc(-c4cccc(C(F)(F)F)c4F)cs3)coc2n(C)c1=O [Compound 59] | 8.66 | < 5.00 | < 6.00 | 5.55 | < 5.00
4 | CCC(=N\O)/C(C)=C/c1ccc(F)cc1 [Compound 89] |  | < 5.00 | < 5.00 | < 5.00 | < 5.00
5 | Cn1c(=O)c2c(CC(=O)Nc3nc(-c4ccc(OC(F)(F)F)c(F)c4)cs3)cccc2n(C)c1=O [Compound 29] | 7.94 | < 5.00 | < 6.00 | < 5.00 | < 5.00
6 | Cn1c(=O)c2c(CC(=O)Nc3nc(-c4ccc(Br)cc4)cs3)cccc2n(C)c1=O [Compound 3] | 7.13 | < 5.00 | < 5.00 | 6.01 | < 5.00
7 | Cn1c(=O)c2c(ccn2CC(=O)Nc2nc(-c3cc(Cl)c(OCCC(F)(F)F)c(Cl)c3)cs2)n(C)c1=O [Compound 35] | 7.74 | < 5.00 | < 5.00 | < 5.00 | < 5.00
8 | Cc1oc2c(c1CC(=O)Nc1nc(-c3ccc(F)c(C(F)(F)F)c3F)cs1)c(=O)n(C)c(=O)n2C [Compound 64] | 8.34 | < 5.00 | < 6.00 | < 5.00 | < 5.00
9 | Cn1c(=O)c2c(CC(=O)Nc3nc(-c4ccc(I)cc4)cs3)cccc2n(C)c1=O [Compound 5] | 7.18 | < 5.00 | < 5.00 | < 6.00 | < 5.00
10 | Cn1c(=O)c2c(CC(=O)Nc3nc(-c4cccc(OC(F)(F)F)c4)cs3)cccc2n(C)c1=O [Compound 26] | 7.32 | < 5.00 | < 6.00 | < 6.00 | < 5.00
11 | Cn1c(=O)c2c(CC(=O)Nc3nc(-c4ccc(C(F)(F)F)c(F)c4)cs3)coc2n(C)c1=O [Compound 54] | 7.75 | < 5.00 | < 6.00 | < 6.00 | < 5.00
12 | Cn1c(=O)c2c(CC(=O)Nc3nc(-c4cccc(Cl)c4F)cs3)cccc2n(C)c1=O [Compound 25] | 7.23 | < 5.00 | < 6.00 | < 6.00 | < 5.00
13 | Cc1sc2c(c1CC(=O)Nc1nc(-c3ccc(Cl)c(Cl)c3)cs1)c(=O)n(C)c(=O)n2C [Compound 47] | 7.47 | < 5.00 | < 5.00 | < 6.00 | < 5.00
14 | Cc1ccc(-c2csc(NC(=O)Cc3cccc4c3c(=O)n(C)c(=O)n4C)n2)cc1 [Compound 6] | 7.01 | < 5.00 | < 5.00 | < 6.00 | < 5.00
15 | CCc1ccc(-c2csc(NC(=O)Cc3cccc4c3c(=O)n(C)c(=O)n4C)n2)cc1 [Compound 17] | 7.25 | < 5.00 | < 5.00 | < 6.00 | < 5.00
16 | CC(C)COc1ccc(-c2csc(NC(=O)Cc3cccc4c3c(=O)n(C)c(=O)n4C)n2)cc1 [Compound 23] | 7.36 | < 5.00 | < 5.00 | < 6.00 | < 5.00
17 | Cn1c(=O)c2c(CC(=O)Nc3nc(-c4ccc(C(C)(C)C)cc4)cs3)cccc2n(C)c1=O [Compound 12] | 7.29 | < 5.00 | < 5.00 | < 6.00 | < 5.00
18 | Cn1c(=O)c2c(cnn2CC(=O)Nc2nc(-c3cc(F)c(OCC(C)(C)C)c(Cl)c3)cs2)n(C)c1=O [Compound 42] | 7.94 | < 5.00 | < 5.00 | < 5.00 | < 5.00
19 | Cn1c(=O)c2c(ccn2CC(=O)Nc2nc(-c3ccc(OC(F)(F)F)cc3)cs2)n(C)c1=O [Compound 34] | 7.41 | < 5.00 | < 5.00 | < 5.00 | < 5.00
20 | Cn1c(=O)c2c(CC(=O)Nc3nc(-c4ccc(C5CCCCC5)cc4)cs3)cccc2n(C)c1=O [Compound 10] | 7.33 | < 5.00 | < 5.00 | < 5.00 | < 5.00
21 | Cn1c(=O)c2c(CC(=O)Nc3nc(-c4ccc(C(F)(F)F)cc4)cs3)cccc2n(C)c1=O [Compound 11] | 7.33 | < 5.00 | < 5.00 | 5.82 | < 5.00
22 | Cn1c(=O)c2c(CC(=O)Nc3nc(-c4ccc(F)c(C(F)(F)F)c4F)cs3)c(Cl)oc2n(C)c1=O [Compound 101] | 8.00 |  |  | < 6.00 | 

Next, values leading:

Row | pIC50 [1] | pIC50 [2] | pIC50 [3] | pIC50 [4] | pIC50 [5] | Compound
23 | 7.98 | < 5.00 | < 6.00 | 6.82 | < 5.00 | Cn1c(=O)c2c(CC(=O)Nc3nc(-c4ccc(C(F)(F)F)cc4F)cs3)nsc2n(C)c1=O [Compound 78]
24 | 7.94 | < 5.00 | < 6.00 | 6.80 | < 5.00 | Cn1c(=O)c2c(CC(=O)Nc3nc(-c4ccc(OC(F)(F)F)c(F)c4)cs3)ccnc2n(C)c1=O [Compound 88]
25 | 7.56 |  |  | 5.40 |  | Cn1c(=O)c2c(CC(=O)Nc3nc(-c4ccc(F)c(OC(F)(F)F)c4)cs3)c(Cl)oc2n(C)c1=O [Compound 103]
26 | 8.09 | < 5.00 | < 6.00 | 6.76 | < 5.00 | Cn1c(=O)c2c(CC(=O)Nc3nc(-c4ccc(OC(F)(F)F)c(F)c4)cs3)nsc2n(C)c1=O [Compound 82]
27 | 8.28 | < 5.00 | < 5.00 | < 5.00 | < 5.00 | Cc1oc2c(c1CC(=O)Nc1nc(-c3ccc(OCC(F)(F)F)c(Cl)c3)cs1)c(=O)n(C)c(=O)n2C [Compound 74]
28 | 8.05 | < 5.00 | < 6.00 | 6.21 | < 5.00 | Cn1c(=O)c2c(CC(=O)Nc3nc(-c4ccc(C(F)(F)F)c(F)c4)cs3)ccnc2n(C)c1=O [Compound 85]
29 | 8.28 | < 5.00 | < 6.00 | 6.08 | < 5.00 | Cn1c(=O)c2c(CC(=O)Nc3nc(-c4cccc(C(F)(F)F)c4F)cs3)nsc2n(C)c1=O [Compound 79]
30 | 8.12 |  |  | 5.87 |  | Cn1c(=O)c2c(CC(=O)Nc3nc(-c4ccc(OC(F)(F)F)c(F)c4)cs3)c(Cl)oc2n(C)c1=O [Compound 102]
31 | 8.12 |  |  | 5.74 |  | Cn1c(=O)c2c(CC(=O)Nc3nc(-c4ccc(C(F)(F)F)c(F)c4F)cs3)c(Cl)oc2n(C)c1=O [Compound 104]
32 | 8.30 |  |  | 5.83 |  | Cn1c(=O)c2c(CC(=O)Nc3nc(-c4ccc(C(F)(F)F)c(F)c4)cs3)c(Cl)oc2n(C)c1=O [Compound 99]
33 | 8.29 |  |  | < 5.00 |  | Cn1c(=O)c2c(CC(=O)Nc3nc(-c4cc(F)cc(C(F)(F)F)c4)cs3)c(Cl)oc2n(C)c1=O [Compound 100]
